Tests used:
melanoma xenograft = melanoma xenograft study in non-obese diabetic-severe combined immunodeficiency mice; type: in vivo; conditions: 25 mg/kg
ApoE = ApoE gene expression induction in cancer cells; type: cell-based; conditions: compared to control cells
tumor growth = tumor growth studies, minimum efficacious dose and exposure; type: in vivo
[1] = safety pharmacology, ECG and heart rate in dogs; type: in vivo
[2] = oral PK study in Sprague-Dawley rats; type: in vivo
[3] = oral PK study in male Beagle dogs; type: in vivo; conditions: dog, plasma
CYP2C9 = CYP2C9 (Homo sapiens, UniProt P11712); assay: in vitro CYP metabolism; type: in vitro ADME
Chain of CYP2C9 (P11712 whole entry): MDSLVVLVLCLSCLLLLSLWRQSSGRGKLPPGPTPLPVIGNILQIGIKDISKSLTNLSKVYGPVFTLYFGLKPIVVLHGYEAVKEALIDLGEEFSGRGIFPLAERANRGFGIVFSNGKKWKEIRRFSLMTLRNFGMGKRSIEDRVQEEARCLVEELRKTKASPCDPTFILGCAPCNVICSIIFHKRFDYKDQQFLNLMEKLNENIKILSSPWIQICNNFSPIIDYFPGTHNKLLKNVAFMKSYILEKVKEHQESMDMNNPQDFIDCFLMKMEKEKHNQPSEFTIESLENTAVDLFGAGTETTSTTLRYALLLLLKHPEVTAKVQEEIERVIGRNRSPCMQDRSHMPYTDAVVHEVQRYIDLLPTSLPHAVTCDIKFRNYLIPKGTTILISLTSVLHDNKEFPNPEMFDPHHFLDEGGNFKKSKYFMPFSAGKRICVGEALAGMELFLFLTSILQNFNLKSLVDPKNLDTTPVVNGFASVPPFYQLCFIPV

2A6 = 2A6 (Homo sapiens, UniProt P11509); assay: in vitro CYP450 inhibition; type: in vitro ADME
Chain of 2A6 (P11509 whole entry): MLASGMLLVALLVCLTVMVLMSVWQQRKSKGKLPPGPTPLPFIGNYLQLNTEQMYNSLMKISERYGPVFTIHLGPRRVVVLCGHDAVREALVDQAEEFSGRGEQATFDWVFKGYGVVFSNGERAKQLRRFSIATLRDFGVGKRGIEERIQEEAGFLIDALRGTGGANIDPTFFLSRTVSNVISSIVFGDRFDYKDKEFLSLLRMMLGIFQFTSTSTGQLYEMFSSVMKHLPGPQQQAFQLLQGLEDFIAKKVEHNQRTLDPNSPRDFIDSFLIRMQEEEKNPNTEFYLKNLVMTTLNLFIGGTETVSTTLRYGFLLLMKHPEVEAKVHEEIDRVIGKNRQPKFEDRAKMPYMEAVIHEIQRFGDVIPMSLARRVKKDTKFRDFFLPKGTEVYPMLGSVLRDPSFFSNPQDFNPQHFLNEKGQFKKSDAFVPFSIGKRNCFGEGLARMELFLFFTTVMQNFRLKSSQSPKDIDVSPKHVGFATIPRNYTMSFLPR

2D6 = 2D6 (Homo sapiens, UniProt P10635); assay: in vitro CYP450 inhibition; type: in vitro ADME
Chain of 2D6 (P10635 whole entry): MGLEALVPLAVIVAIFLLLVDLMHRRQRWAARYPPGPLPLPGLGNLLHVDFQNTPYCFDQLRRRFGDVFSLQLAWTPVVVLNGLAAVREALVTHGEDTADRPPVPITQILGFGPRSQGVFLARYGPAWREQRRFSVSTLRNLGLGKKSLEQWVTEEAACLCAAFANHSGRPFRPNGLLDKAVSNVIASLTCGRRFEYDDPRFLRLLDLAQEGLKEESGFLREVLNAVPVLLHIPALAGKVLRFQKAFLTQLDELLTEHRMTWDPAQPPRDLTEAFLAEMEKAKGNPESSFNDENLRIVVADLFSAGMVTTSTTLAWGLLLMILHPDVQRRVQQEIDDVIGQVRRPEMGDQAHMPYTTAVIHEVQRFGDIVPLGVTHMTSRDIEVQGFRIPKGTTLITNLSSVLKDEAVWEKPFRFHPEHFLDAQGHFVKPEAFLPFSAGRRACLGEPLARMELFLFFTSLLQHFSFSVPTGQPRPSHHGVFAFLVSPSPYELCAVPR

2E1 = 2E1 (Homo sapiens, UniProt P05181); assay: in vitro CYP450 inhibition; type: in vitro ADME
Chain of 2E1 (P05181 whole entry): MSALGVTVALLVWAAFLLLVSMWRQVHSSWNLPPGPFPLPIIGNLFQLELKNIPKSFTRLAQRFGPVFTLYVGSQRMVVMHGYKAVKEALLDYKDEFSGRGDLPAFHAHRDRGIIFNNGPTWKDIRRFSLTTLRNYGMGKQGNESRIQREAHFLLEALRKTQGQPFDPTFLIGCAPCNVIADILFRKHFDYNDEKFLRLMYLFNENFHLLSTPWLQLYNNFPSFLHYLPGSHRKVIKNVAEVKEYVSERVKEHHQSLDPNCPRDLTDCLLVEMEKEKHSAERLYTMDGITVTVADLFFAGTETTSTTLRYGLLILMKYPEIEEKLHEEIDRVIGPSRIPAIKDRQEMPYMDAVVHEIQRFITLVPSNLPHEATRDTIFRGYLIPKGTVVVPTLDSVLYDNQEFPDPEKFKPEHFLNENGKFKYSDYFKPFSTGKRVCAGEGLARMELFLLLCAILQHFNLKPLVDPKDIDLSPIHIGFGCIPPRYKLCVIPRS

CYP2B6 = assay: CYP induction in primary cultures of cryopreserved hepatocytes; type: in vitro ADME
OATP1B3 = OATP1B3 (Homo sapiens, UniProt Q9NPD5); assay: uptake transporter inhibition in vitro; type: in vitro ADME
Chain of OATP1B3 (Q9NPD5 whole entry): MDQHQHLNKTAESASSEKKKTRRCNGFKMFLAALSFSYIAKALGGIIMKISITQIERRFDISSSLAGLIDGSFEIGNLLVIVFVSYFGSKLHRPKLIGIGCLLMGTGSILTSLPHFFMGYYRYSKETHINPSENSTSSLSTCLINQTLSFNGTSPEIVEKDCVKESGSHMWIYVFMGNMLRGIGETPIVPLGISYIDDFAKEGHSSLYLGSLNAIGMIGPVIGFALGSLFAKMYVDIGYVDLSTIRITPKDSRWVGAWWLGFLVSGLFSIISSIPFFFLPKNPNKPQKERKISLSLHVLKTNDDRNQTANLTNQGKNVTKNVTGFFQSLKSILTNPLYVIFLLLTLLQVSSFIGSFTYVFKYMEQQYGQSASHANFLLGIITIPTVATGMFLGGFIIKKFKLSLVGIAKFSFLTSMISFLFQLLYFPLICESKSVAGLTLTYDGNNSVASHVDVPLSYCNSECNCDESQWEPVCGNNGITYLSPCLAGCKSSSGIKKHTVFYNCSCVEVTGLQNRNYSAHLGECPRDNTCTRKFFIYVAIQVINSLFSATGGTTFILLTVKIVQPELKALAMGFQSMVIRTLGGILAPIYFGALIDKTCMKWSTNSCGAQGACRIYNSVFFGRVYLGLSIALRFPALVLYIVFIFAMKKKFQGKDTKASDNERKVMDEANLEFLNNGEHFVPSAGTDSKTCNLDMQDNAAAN

OAT1 = OAT1 (Homo sapiens, UniProt Q4U2R8); assay: transporter inhibition in vitro; type: in vitro ADME
Chain of OAT1 (Q4U2R8 whole entry): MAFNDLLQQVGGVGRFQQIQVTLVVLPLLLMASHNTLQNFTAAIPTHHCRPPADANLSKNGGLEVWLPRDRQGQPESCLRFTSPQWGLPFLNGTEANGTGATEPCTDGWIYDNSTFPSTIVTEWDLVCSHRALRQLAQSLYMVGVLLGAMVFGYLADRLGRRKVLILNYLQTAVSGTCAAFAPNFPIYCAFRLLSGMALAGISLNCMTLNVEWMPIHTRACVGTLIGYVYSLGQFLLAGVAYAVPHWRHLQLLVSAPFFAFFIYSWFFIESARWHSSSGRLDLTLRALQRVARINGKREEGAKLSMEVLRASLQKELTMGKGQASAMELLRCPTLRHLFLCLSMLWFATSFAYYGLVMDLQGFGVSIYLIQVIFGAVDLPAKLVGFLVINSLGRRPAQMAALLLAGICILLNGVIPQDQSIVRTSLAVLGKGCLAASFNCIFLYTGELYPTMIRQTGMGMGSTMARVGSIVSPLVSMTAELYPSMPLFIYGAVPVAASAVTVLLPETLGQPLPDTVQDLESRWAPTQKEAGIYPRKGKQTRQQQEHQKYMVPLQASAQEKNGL

OCT2 = OCT2 (Homo sapiens, UniProt O15244); assay: transporter inhibition in vitro; type: in vitro ADME
Chain of OCT2 (O15244 whole entry): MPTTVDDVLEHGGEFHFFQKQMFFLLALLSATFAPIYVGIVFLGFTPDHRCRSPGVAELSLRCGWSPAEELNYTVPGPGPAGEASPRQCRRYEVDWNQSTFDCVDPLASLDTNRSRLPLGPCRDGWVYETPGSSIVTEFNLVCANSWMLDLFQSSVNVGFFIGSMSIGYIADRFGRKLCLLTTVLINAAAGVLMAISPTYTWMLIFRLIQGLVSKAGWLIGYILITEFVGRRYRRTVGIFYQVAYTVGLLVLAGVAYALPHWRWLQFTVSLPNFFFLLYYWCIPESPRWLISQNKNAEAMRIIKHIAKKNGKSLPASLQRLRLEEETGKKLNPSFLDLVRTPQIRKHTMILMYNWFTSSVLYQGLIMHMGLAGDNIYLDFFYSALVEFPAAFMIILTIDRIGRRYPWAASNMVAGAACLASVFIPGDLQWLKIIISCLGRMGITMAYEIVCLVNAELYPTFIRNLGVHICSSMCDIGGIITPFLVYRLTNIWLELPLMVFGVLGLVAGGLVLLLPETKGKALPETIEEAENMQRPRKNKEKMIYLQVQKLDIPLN

[4] = pre-clinical toxicity studies; type: in vivo
Xenograft A549 = assay: Example 2: Xenograft A549 mice, tumor volume; type: in vivo
Procedure: Protocol: Five groups of Xenograft A549 mice were treated and tumor volume tracked for twenty-two days. Group 01 was administered 0.9% Saline, 0 mg/kg cisplatin, Corn Oil, and 0 mg/kg 2-[3-[(3R)-3-[[2-chloro-3-(trifluoromethyl)phenyl]methyl-(2,2-diphenylethyl)amino]butoxy]phenyl]acetic acid; Group 02 was administered 2 mg/kg Cisplatin, Corn Oil, and 0 mg/kg 2-[3-[(3R)-3-[[2-chloro-3-(trifluoromethyl)phenyl]methyl-(2,2-diphenylethyl)amino]butoxy]phenyl]acetic acid; Group 03 was administered 0.9% Saline, 0 mg/kg cisplatin, and 50 mg/kg 2-[3-[(3R)-3-[[2-chloro-3-(trifluoromethyl)phenyl]methyl-(2,2-diphenylethyl)amino]butoxy]phenyl]acetic acid; Group 04 was administered 2 mg/kg cisplatin and 50 mg/kg 2-[3-[(3R)-3-[[2-chloro-3-(trifluoromethyl)phenyl]methyl-(2,2-diphenylethyl)amino]butoxy]phenyl]acetic acid twice per day daily for the entire treatment period; and Group 05 was administered 2 mg/kg cisplatin and 50 mg/kg 2-[3-[(3R)-3-[[2-chloro-3-(trifluoromethyl)phenyl]methyl-(2,2-diphenylethyl)amino]butoxy]phenyl]acetic acid twice per day for five continuous days followed by two days without for the entire treatment period.

C[C@H](CCOc1cccc(CC(=O)O)c1)N(Cc1cccc(C(F)(F)F)c1Cl)CC(c1ccccc1)c1ccccc1 [2-[3-[(3R)-3-[[2-chloro-3-(trifluoromethyl)phenyl]methyl-(2,2-diphenylethyl)amino]butoxy]phenyl]acetic acid]
growth of the xenograft (melanoma xenograft): significantly inhibited growth of the xenograft | ApoE gene expression induction (ApoE): 3 fold | exposures at minimum efficacious doses (tumor growth; 25-40 mg/kg/day PO): 10,000-50,000 ng-h/mL | minimum efficacious doses (tumor growth; administered orally (PO)): 25 to 40 mg/kg/day | compound-related effects on qualitative ECG parameters (PR or QTc intervals or QRS duration) [1]: no | mean heart rate ([1]; Day 1 post-dose interval, significant in females at 150 (stepped down to 100) mg/kg/day, not considered adverse): dose related decrease in mean heart rate | half-life ([2]; Sprague-Dawley, rat, plasma, po, female rats, read-out: mean apparent oral t½ (converted)): 6.5 h | clearance, female versus male rats ([2]; all dose levels, higher systemic exposure in females): cleared at a lower rate in female rats compared to males | Tmax ([2]; both sexes, rat, plasma, po, Sprague-Dawley rats, males and females): 4 to 8 h | bioavailability ([2]; rat, plasma, Sprague-Dawley rats, 30 mg/kg oral dose, read-out: combined, mean % F): ~31% | Tmax ([3]; oral dose): 4 to 8 h | bioavailability ([3]; po, depending on dose and formulation, read-out: mean % F): 18 to 30% | half-life ([3]; po, read-out: mean apparent oral t½): 5 to 6.7 h | substrate for CYP2C9 (CYP2C9): a substrate | inhibition of 2A6 (2A6): very weakly inhibited | inhibition of 2D6 (2D6): very weakly inhibited | inhibition of 2E1 (2E1): very weakly inhibited | CYP2B6 induction (CYP2B6; 1 concentration in ⅓ donors): > 2 fold | potential to induce CYP2B6 (CYP2B6; cryopreserved hepatocytes): cannot be ruled out | IC50 (OATP1B3): 3.7 µM | inhibition at 50 µM (OAT1): < 50% | inhibition at 50 µM (OCT2): < 50% | liver function [4]: Liver function abnormalities have been observed | mean tumor volume (Xenograft A549; Group 03: 50 mg/kg, 0.9% saline, 0 mg/kg cisplatin, day 0): 86.36 | mean tumor volume (Xenograft A549; Group 03: 50 mg/kg, 0.9% saline, 0 mg/kg cisplatin, day 3): 98.82 | mean tumor volume (Xenograft A549; Group 03: 50 mg/kg, 0.9% saline, 0 mg/kg cisplatin, day 6): 125.97 | mean tumor volume (Xenograft A549; Group 03: 50 mg/kg, 0.9% saline, 0 mg/kg cisplatin, day 9): 232.26 | mean tumor volume (Xenograft A549; Group 03: 50 mg/kg, 0.9% saline, 0 mg/kg cisplatin, day 12): 354.70 | mean tumor volume (Xenograft A549; Group 03: 50 mg/kg, 0.9% saline, 0 mg/kg cisplatin, day 15): 507.62 | mean tumor volume (Xenograft A549; Group 03: 50 mg/kg, 0.9% saline, 0 mg/kg cisplatin, day 19): 1053.57 | mean tumor volume (Xenograft A549; Group 03: 50 mg/kg, 0.9% saline, 0 mg/kg cisplatin, day 22): 1151.02 | mean tumor volume (Xenograft A549; Group 04: 50 mg/kg twice per day daily + 2 mg/kg cisplatin, day 0, in mm³ (unit assumed)): 86.71 | mean tumor volume (Xenograft A549; Group 04: 50 mg/kg twice per day daily + 2 mg/kg cisplatin, day 3): 94.50 | mean tumor volume (Xenograft A549; Group 04: 50 mg/kg twice per day daily + 2 mg/kg cisplatin, day 6): 111.80 | mean tumor volume (Xenograft A549; Group 04: 50 mg/kg twice per day daily + 2 mg/kg cisplatin, day 9, in mm³ (unit assumed)): 214.76 | mean tumor volume (Xenograft A549; Group 04: 50 mg/kg twice per day daily + 2 mg/kg cisplatin, day 12, in mm³ (unit assumed)): 315.64 | mean tumor volume (Xenograft A549; Group 04: 50 mg/kg twice per day daily + 2 mg/kg cisplatin, day 15, in mm³ (unit assumed)): 315.55 | mean tumor volume (Xenograft A549; Group 04: 50 mg/kg twice per day daily + 2 mg/kg cisplatin, day 19): 748.19 | mean tumor volume (Xenograft A549; Group 04: 50 mg/kg twice per day daily + 2 mg/kg cisplatin, day 22): 875.67 | mean tumor volume (Xenograft A549; Group 05: 50 mg/kg twice per day five days then two days without + 2 mg/kg cisplatin, day 0, in mm³ (unit assumed)): 86.32 | mean tumor volume (Xenograft A549; Group 05: 50 mg/kg twice per day five days then two days without + 2 mg/kg cisplatin, day 3): 97.27 | mean tumor volume (Xenograft A549; Group 05: 50 mg/kg twice per day five days then two days without + 2 mg/kg cisplatin, day 6): 129.15 | mean tumor volume (Xenograft A549; Group 05: 50 mg/kg twice per day five days then two days without + 2 mg/kg cisplatin, day 9, in mm³ (unit assumed)): 212.99 | mean tumor volume (Xenograft A549; Group 05: 50 mg/kg twice per day five days then two days without + 2 mg/kg cisplatin, day 12, in mm³ (unit assumed)): 334.58 | mean tumor volume (Xenograft A549; Group 05: 50 mg/kg twice per day five days then two days without + 2 mg/kg cisplatin, day 15, in mm³ (unit assumed)): 345.20 | mean tumor volume (Xenograft A549; Group 05: 50 mg/kg twice per day five days then two days without + 2 mg/kg cisplatin, day 19): 680.16 | mean tumor volume (Xenograft A549; Group 05: 50 mg/kg twice per day five days then two days without + 2 mg/kg cisplatin, day 22): 830.27

— patent US20220331274A1, “METHODS OF TREATING CANCER” (Inspirna, Inc., priority 2019, published 2022)
